The values below come from patent US8513276B2, “Imidazo[1,2-a]pyridine compounds for use in treating cancer” (Astex Therapeutics Limited, priority 2006, dated 2013).

The target in test [1] is T1, FGFR3 (Homo sapiens, UniProt P22607).
T1 construct: Enzymes (from Upstate) were prepared at 2× final concentration in 1× kinase assay buffer; purchased Upstate
As to the kind of experiment: FGFR3 in vitro kinase inhibitory activity assay (TRF). In kind it is biochemical. As to the method: Enzymes (from Upstate) were prepared at 2× final concentration in 1× kinase assay buffer (as described below). Enzymes were then incubated with test compounds, biotinylated Flt3 substrate (biotin—DNEYFYV) (Cell Signalling Technology Inc.) and ATP. The reaction was allowed to proceed for 3 hours (FGFR3) or 2.5 hrs (PDGFR-beta) at room temperature on a plate shaker at 900 rpm before being stopped with 20 μl of 35 mM EDTA, pH 8 (FGFR3) or 55 mM EDTA, pH 8 (PDGFR-beta). Twenty μl of 5× detection mix (50 mM HEPES pH 7.5, 0.1% BSA, 2 nM Eu-anti-pY (PY20) (PerkinElmer) 15 nM SA-XL665 (Cisbio) for FGFR3 and 50 mM HEPES, pH 7.5, 0.5 M KF, 0.1% BSA, 11.34 nM Eu-anti-pY (PT66) (PerkinEimer), 94 nM SA-XL665 (Cisbio) for PDGFR-beta) was then added to each well and the plate sealed and incubated at room temperature for one hour on a plate shaker at 900 rpm. The plate was then read on a Packard Fusion plate reader in TRF mode.
Kinase Assay buffers were:
A: 50 mM HEPES pH 7.5, 6 mM MnCl2, 1 mM DTT, 0.1% TritonX-100

Test [2] deals with LP-1 cell line. Nature of the test: Cell-based pERK ELISA in LP-1 multiple myeloma cells. Conditions: Homo sapiens. As to the method: LP-1 or JIM-1 multiple myeloma cells were seeded in 96 well plates at 1×10^6 cells/ml in 200 μl per well in serum free media. HUVEC cells were seeded at 2.5×10^5 cells/ml and allowed to recover for 24 h prior to transfer to serum free media. Cells were incubated for 16 h at 37° C. prior to the addition of a test compound for 30 minutes. Test compounds were administered at a 0.1% final DMSO concentration. Following this 30 minute incubation a FGF-1/Heparin (FGF-1 at 100 ng/ml final and Heparin at 100 ug/ml) mixture or VEGF^165 ([…]) was added to each of the wells for a further 5 minutes. The media was removed and 50 ul ERK ELISA lysis buffer (R and D Systems DuoSet ELISA for pERK and Total ERK #DYC-1940E, DYC-1018E) added. ELISA plates and standards were prepared according to the standard DuoSet protocols and the relative amounts of pERK to total ERK in each sample calculated according to the standard curve.
In particular, compounds of the invention were tested against the LP-1 cell line (DSMZ no.: ACC 41) derived from human multiple myeloma.
Background: An ELISA detects its analyte on a solid surface through an enzyme-linked reagent.

Setting [3] is: given as a bound, read-out: IC50 in the FGFR3 assay.
[4] abbreviates: LP-1 cell line, given as a bound, read-out: IC50 in LP-1 pERK ELISA.
Where [5] appears, read: in vitro kinase assay, 8 μM ATP, read-out: FGFR3 IC50.
Setting [6] is: LP-1 cells, FGF-1/heparin stimulation, pERK relative to total ERK, read-out: LP-1 pERK ELISA.

Where a name gives a salt, the structure may show the parent alone. Read-outs that look alike come from different tables or passages of the source. Bounds are passed on as bounds.

T1 sequence (P22607 23-806): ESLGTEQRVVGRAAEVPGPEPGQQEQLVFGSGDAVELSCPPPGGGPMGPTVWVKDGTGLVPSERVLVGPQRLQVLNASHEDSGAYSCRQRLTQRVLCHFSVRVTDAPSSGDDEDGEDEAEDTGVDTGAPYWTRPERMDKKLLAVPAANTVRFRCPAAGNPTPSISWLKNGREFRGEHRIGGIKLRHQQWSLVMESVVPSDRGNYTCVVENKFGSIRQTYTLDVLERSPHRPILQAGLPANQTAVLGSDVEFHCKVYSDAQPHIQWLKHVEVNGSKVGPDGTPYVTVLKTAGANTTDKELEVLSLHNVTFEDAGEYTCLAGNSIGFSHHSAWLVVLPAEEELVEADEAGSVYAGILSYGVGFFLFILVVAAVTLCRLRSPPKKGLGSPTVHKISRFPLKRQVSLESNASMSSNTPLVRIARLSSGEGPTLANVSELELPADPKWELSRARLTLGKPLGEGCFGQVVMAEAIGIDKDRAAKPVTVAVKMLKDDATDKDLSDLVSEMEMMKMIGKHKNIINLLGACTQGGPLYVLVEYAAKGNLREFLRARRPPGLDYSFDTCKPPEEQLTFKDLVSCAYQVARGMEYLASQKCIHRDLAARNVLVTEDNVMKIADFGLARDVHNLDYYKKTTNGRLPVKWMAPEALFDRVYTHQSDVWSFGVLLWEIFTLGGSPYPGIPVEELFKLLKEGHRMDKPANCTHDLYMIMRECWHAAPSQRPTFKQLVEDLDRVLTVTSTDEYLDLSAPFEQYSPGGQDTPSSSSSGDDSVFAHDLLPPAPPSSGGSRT

For `CN1CCN(Cc2cccc(-c3ccn4c(-c5cccc(Nc6nncs6)c5)cnc4c3)c2)CC1` [Example 9, (3-{7-[3-(4-Methyl-piperazin-1-ylmethyl)-phenyl]-imidzao[1,2-a]pyridin-3-yl}-phenyl)-[1,3,4]thiadiazol-2-yl-amine formate salt], the IC50 in test [1] (setting [3]) and in test [2] (setting [4]) was less than 1000 nM throughout.
Regarding `Fc1ccc(-c2cnc3c(-c4cccc(Nc5nncs5)c4)cnn3c2)cc1` [Example 10, {3-[6-(4-Fluoro-phenyl)-pyrazolo[1,5-a]pyrimidin-3-yl]-phenyl}-[1,3,4]thiadiazol-2-yl-amine], the IC50 is less than 1000 nM in test [1] (setting [3]), 4.82 nM in test [1] (setting [5]), less than 1000 nM in test [2] (setting [4]) and 39 nM in test [2] (setting [6]).
For `Nc1ccc(-c2cnc3c(-c4cccc(Nc5nncs5)c4)cnn3c2)cn1` [Example 11, 5-{3-[3-([1,3,4]Thiadiazol-2-ylamino)-phenyl]-pyrazolo[1,5-a]pyrimidin-6-yl}-pyridin-2-ylamine hydrochloride salt], the IC50 in test [1] (setting [3]) is less than 1000 nM; in test [1] (setting [5]), 6.03 nM; in test [2] (setting [4]), less than 1000 nM; in test [2] (setting [6]), 40 nM.
As to `Fc1ccc(-c2ccc3c(-c4cccc(Nc5nncs5)c4)cnn3c2)cc1` [Example 12, {3-[6-(4-Fluoro-phenyl)-pyrazolo[1,5-a]pyridin-3-yl]-phenyl}-[1,3,4]thiadiazol-2-yl-amine], the IC50 in test [1] (setting [3]) and in test [2] (setting [4]) was less than 1000 nM in each case.
As for `O=C(O)Cc1cccc(-c2ccn3c(-c4cccc(NCc5ccccc5)c4)cnc3c2)c1` [Example 13, {3-[3-(3-Benzylamino-phenyl)-imidazo[1,2-a]pyridin-7-yl]-phenyl}-acetic acid], the IC50 in test [1] (setting [3]) and in test [2] (setting [4]) was less than 1000 nM throughout.
With `Cn1cc(-c2ccn3c(-c4cccc(Nc5nncs5)c4)cnc3c2)cn1` [Example 14, {3-[7-(1-Methyl-1H-pyrazol-4-yl)-imidazo[1,2-a]pyridin-3-yl]-phenyl}-[1,3,4]thiadiazol-2-yl-amine], the IC50 in test [1] (setting [3]) was less than 1000 nM; in test [1] (setting [5]), 16 nM; in test [2] (setting [4]), less than 1000 nM; in test [2] (setting [6]), 8.5 nM.
For the compound `Cn1cc(-c2cnc3c(-c4cccc(Nc5nncs5)c4)cnn3c2)cn1` [Example 16, {3-[6-(1-Methyl-1H-pyrazol-4-yl)-pyrazolo[1,5-a]pyrimidin-3-yl]-phenyl}-[1,3,4]thiadiazol-2-yl-amine], the IC50 in test [1] (setting [3]) and in test [2] (setting [4]) was less than 1000 nM throughout.
For `c1cc(Nc2nncs2)cc(-c2cnn3cc(-c4ccncc4)cnc23)c1` [Example 17, [3-(6-Pyridin-4-yl-pyrazolo[1,5-a]pyrimidin-3-yl)-phenyl]-[1,3,4]thiadiazol-2-yl-amine], the IC50 in test [1] (setting [3]) and in test [2] (setting [4]) was less than 1000 nM each time.
For `c1cc(Nc2nncs2)cc(-c2cnn3cc(-c4cnccn4)cnc23)c1` [Example 18, [3-(6-Pyrazin-2-yl-pyrazolo[1,5-a]pyrimidin-3-yl)-phenyl]-[1,3,4]thiadiazol-2-yl-amine], the IC50 in test [1] (setting [3]) and in test [2] (setting [4]) was less than 1000 nM in each case.
In the case of `c1cc(Nc2nncs2)cc(-c2cnc3cc(-c4ccc5c(c4)OCO5)ccn23)c1` [Example 20, [3-(7-Benzo[1,3]dioxol-5-yl-imidazo[1,2-a]pyridin-3-yl)-phenyl]-[1,3,4]thiadiazol-2-yl-amine Formate], the IC50 in test [1] (setting [3]) and in test [2] (setting [4]) was less than 1000 nM in each case.
Turning to `c1cc(Nc2nncs2)cc(-c2cnc3cc(N4CCCCC4)ccn23)c1` [Example 24, [3-(7-Piperidin-1-yl-imidazo[1,2-a]pyridin-3-yl)-phenyl]-[1,3,4]thiadiazol-2-yl-amine], the IC50 in test [1] (setting [3]) and in test [2] (setting [4]) was less than 1000 nM throughout.
Turning to `Fc1ccc(-c2cnc3c(-c4cncc(Nc5nncs5)c4)cnn3c2)cc1` [Example 25, {5-[6-(4-Fluoro-phenyl)-pyrazolo[1,5-a]pyrimidin-3-yl]-pyridin-3-yl}-[1,3,4]thiadiazol-2-yl-amine], the IC50 in test [1] (setting [3]) and in test [2] (setting [4]) was less than 1000 nM each time.
Consider `CNC(=O)Cc1cccc(-c2ccn3c(-c4cccc(Nc5nncs5)c4)cnc3c2)c1` [Example 26, N-Methyl-2-(3-{3-[3-([1,3,4]thiadiazol-2-ylamino)-phenyl]-imidazo[1,2-a]pyridin-7-yl}-phenyl)-acetamide Hydrochloride], for which the IC50 in test [1] (setting [3]) and in test [2] (setting [4]) was less than 1000 nM throughout.
As for `O=C1CN(Cc2cccc(-c3ccn4c(-c5cccc(Nc6nncs6)c5)cnc4c3)c2)CCN1` [Example 28, 4-(3-{3-[3-([1,3,4]Thiadiazol-2-ylamino)-phenyl]-imidazo[1,2-a]pyridin-7-yl}-benzyl)-piperazin-2-one Formate], the IC50 in test [1] (setting [3]) and in test [2] (setting [4]) was less than 1000 nM each time.
With `CNC(=O)c1cccc(-c2ccn3c(-c4cccc(Nc5nncs5)c4)cnc3c2)c1` [Example 30, N-Methyl-3-{3-[3-([1,3,4]thiadiazol-2-ylamino)-phenyl]-imidazo[1,2-a]pyridin-7-yl}-benzamide Hydrochloride], the IC50 in test [1] (setting [3]) and in test [2] (setting [4]) was less than 1000 nM in each case.
`Nc1cccc(-c2ccn3c(-c4cccc(Nc5nncs5)c4)cnc3c2)c1` [Example 32, {3-[7-(3-Amino-phenyl)-imidazo[1,2-a]pyridin-3-yl]-phenyl}-[1,3,4]thiadiazol-2-yl-amine Hydrochloride]: the IC50 in test [1] (setting [3]) and in test [2] (setting [4]) was less than 1000 nM each time.
For `Cn1nnc(-c2ccn3c(-c4cccc(Nc5nncs5)c4)cnc3c2)n1` [Example 43, {3-[7-(2-Methyl-2H-tetrazol-5-yl)-imidazo[1,2-a]pyridin-3-yl]phenyl}-[1,3,4]thiadiazol-2-yl-amine], the IC50 is less than 1000 nM in test [1] (setting [3]), 33.9 nM in test [1] (setting [5]), less than 1000 nM in test [2] (setting [4]) and 140 nM in test [2] (setting [6]).
Take `Clc1ccn2c(-c3cccc(Nc4nncs4)c3)cnc2c1` [the starting material of Procedure A4c, [3-(7-Chloro-imidazo[1,2-a]pyridin-3-yl)-phenyl]-[1,3,4]thiadiazol-2-yl-amine]: the IC50 in test [1] (setting [3]) and in test [2] (setting [4]) was less than 1000 nM each time.
